ChEMBL document CHEMBL1127005, “Design of novel agents for the therapy of non-insulin dependent diabetes mellitus (NIDDM)” (Bioorg Med Chem Lett, 1993)
pIC50: −log10 of the molar value.

organism: Rattus norvegicus; experiment: Inhibition against gluconeogenesis was expressed as effect of compound on rat hepatocyte glucose production from 10 mM lactate/1 mM pyruvate/0.5 mM oleate; format: functional; details: Rattus norvegicus, Hepatocyte

| Structure (SMILES) | pIC50 |
| --- | --- |
| C=C1[C@@H](CC(N)=O)[C@H]1CCCC | 5.40 |
| C=C1[C@@H](CCCCCCCCCCCC)[C@@H]1CC(=O)O | 3.80 |
| C=C1[C@@H](CC(=O)O)[C@H]1CCCC | 4.82 |
| C=C1C[C@@H]1CC(N)=O | 4.52 |
| C=C1[C@@H](CC(N)=O)[C@H]1CCCCCCCCCCCC | 4.49 |
| C=C1[C@H](CCCC)[C@H]1CC(N)=O | 4.22 |
| C=C1[C@H](CCCC)[C@H]1CC(=O)O | 4.52 |
| C=C1[C@@H](CC(N)=O)[C@H]1CCCCCCCC | 5.10 |
| C=C1C[C@@H]1CC(=O)O | 4.22 |
| C=C1[C@@H](CC(=O)O)[C@H]1CCCCCCCCCCCC | 4.60 |
| C=C1[C@@H](CC(=O)O)[C@H]1CCCCCCCC | 5.30 |

same assay, conditions: hepatocyte

| Structure (SMILES) | pIC50 |
| --- | --- |
| C=C1[C@H](CCCCCCCCCCCC)[C@H]1CC(=O)O (stereo in doubt) | 4.89 |
| C=C1[C@H](CCCCCCCCCCCC)[C@H]1CC(=O)O (stereo in doubt; 4d) | 3.70 |
